How the values were obtained:
[1] = tested on: Oxyrrhis; assay: Control of Oxyrrhis contamination in microalgae culture, microscope examination; format: cell-based, Oxyrrhis sp
From the text: If the contaminated alga liquid is identified as acid tolerant contamination, pH value is raised up with alkalis in the culture system of the microalgae and maintained for a period of time. The pH value cannot be higher than the maximal tolerable pH of the microalgae. […] In an embodiment, said alkali can be ammonia. In an embodiment, said alkali can be NaOH. In an embodiment, said alkali can be 1M NaOH. Depending on different pH requirements and different culture systems, alkalis with different concentrations can be used according to the agitation condition, as long as the transient pH is not too high to be harmful to microalgae, and dilution of the cell concentration in the culture system (caused by adding too much alkali solution) should also be avoided. […] In an embodiment, the pH of the culture system is adjusted to 11.5-12.0 with 1M NaOH or 1M ammonia. In an embodiment, the pH of the culture system is adjusted to 11.0-11.8 or 8.0-11.0 with 1M NaOH or 1M ammonia. In an embodiment, the pH of the culture system is adjusted to 8.0-11.0, 11.5-12.0 or 11.0-11.8 and maintained for 3 hours.
Microscope examination is always used as one of the bases for determining the growth status in the process of microalgae culture.
(§1) Chlorella sp. (purchased from FACHB collection, Wuhan Aquatic Research Institure, Chinses Academy of Sciences) was cultured in a 320 L bubbling reactor (manufactured by Longfang Jiangchuan plexiglass Co. Ltd., φ300 mm×2 m) out-of-doors under a sunlight film. The culture condition included: a temperature of about 25 °C, a humidity of 60%-80%, and an illumination of 8000-20000 lux. Modified SM (see Table 2) (pH 7.0-9.0 for the normal culture) was used. […] Then, CO2 was aerated to adjust pH to be 7.0-8.0.
(§2) Chlorella sp. (obtained from Jinan University) was cultured in a 320 L bubbling reactor (manufactured by Longfang Jiangchuan plexiglass Co. Ltd., φ300 mm×2 m) out-of-doors under a sunlight film (with a temperature of about 25 °C, a humidity of 60%-80%, and an illumination of 8000-20000 lux). Modified SM medium (see Table 2) was used. When Amoeba, Oxyrrhis and ciliate contaminations were observed is with an oil immersion lens (Nikon fluorescent invert microscope Ti series), pH was adjusted to 11.0-11.8 with 1M NaOH. […] Then, CO2 was aerated continuously to saturation (pH 5.6). […] Then air was sufficiently aerated.
(§3) Chlorococcum sp. (obtained from Qingdao Marine Institute) was cultured in a 60 L glass plate reactor (manufactured by Longfang Jiangchuan plexiglass Co. Ltd., OP=10 cm) under a sunlight film (with a temperature of about 25 °C, a humidity of 60%-80%, and an illumination of 8000-20000 lux) (pH 8.0-9.0 for the normal culture). Modified BG11 medium (see Table 3) was used. […] Then CO2 was aerated and pH was adjusted to 7.0-8.0.
(§4) Chlorococcum sp. (obtained from Qingdao Marine Institute) was cultured in a 60 L glass plate reactor (manufactured by Longfang Jiangchuan plexiglass Co. Ltd., OP=10 cm) under a sunlight film (with a temperature of about 25 °C, a humidity of 60%-80%, and an illumination of 8000-20000 lux) (pH 8.0-9.0 for the normal culture). Modified BG11 medium (see Table 3) was used. […] One hour later, CO2 was aerated to saturation (about pH 5.6) for 24 hour continuously. […] Then air was sufficiently aerated.

[2] = tested on: Chlorococcum sp.; assay: Growth of cultured algae after treatment, 60 L glass plate reactor; conditions: for algae growth compared with adjusting pH with NaOH: pH adjusted with 1M ammonia
Description: (§5) pH of the normally cultured microalgae is adjusted into various ranges. The growth rate of the microalgae is measured and their appearance is observed under a microscope.
Chlorococcum sp. (obtained from Qingdao Marine Institute) was cultured (pH 8.0-9.0 for the normal culture) in a 60 L glass plate reactor (manufactured by Longfang Jiangchuan plexiglass Co. Ltd., OP=10 cm) under a sunlight film (with a temperature of about 25 °C, a humidity of 60%-80%, and an illumination of 8000-20000 lux). Modified BG11 medium (see Table 3) was used. […] CO2 was aerated continuously. […] Then air was sufficiently aerated, and pH was raised to 7.0-8.0 in 4 hours.
as §3, §4
as §3, with “air” for “CO2”, “sufficiently aerated.” for “aerated and pH was adjusted to 7.0-8.0.”
as §3
Chlorococcum sp. (obtained from Qingdao Marine Institute) was cultured in a 60 L glass plate reactor (manufactured by Longfang Jiangchuan plexiglass Co. Ltd., OP=10 cm) under a sunlight film (with a temperature of about 25 °C, a humidity of 60%-80%, and an illumination of 8000-20000 lux) (pH 8.0-9.0 for the normal culture). Modified BG11 medium (see Table 3) was used.

[3] = tested on: Spirulina maxima; assay: Growth of cultured algae after treatment, 500 L raceway pond; format: cell-based; conditions: Example 15; pH adjusted with 1M ammonia
Description: Modified SM (see Table 2) was used. […] Then air was sufficiently aerated. Twenty-four hours later, the algae could resume to grow.
Modified SM (see Table 2) was used. […] One hour later, CO2 was aerated to saturation for 23 hour continuously (about pH 5.8). […] Then air was sufficiently aerated. Twenty-four hours later, the algae could resume to grow.

[4] = tested on: Chlorella sp.; assay: Growth of cultured algae after treatment, 320 L bubbling reactor; conditions: for algae growth compared with adjusting pH with NaOH: pH adjusted with 1M ammonia
Description: as §5, §1
Chlorella sp. (purchased from FACHB collection, Wuhan Aquatic Research Institure, Chinses Academy of Sciences) was cultured in a 320 L bubbling reactor (manufactured by Longfang Jiangchuan plexiglass Co. Ltd., φ300 mm×2 m) out-of-doors under a sunlight film. Modified SM medium (see Table 2) (pH 7.0-9.0 for the normal culture) was used. The culture condition included: a temperature of about 25 °C, a humidity of 60%-80%, and an illumination of 8000-20000 lux. […] Then air was sufficiently aerated, and pH was raised to 7.0-7.5 after 4 hours.
as §2
as §1, with “film. Modified SM medium (see Table 2) (pH 7.0-9.0 for the normal culture) was used.” for “film.”, “lux.” for “lux. Modified SM (see Table 2) (pH 7.0-9.0 for the normal culture) was used.”, “Then” for “Then,”, “aerated and pH was adjusted” for “aerated”, “to” for “to adjust pH to be”
Chlorella sp. (obtained from Jinan University) was cultured in a 320 L bubbling reactor (manufactured by Longfang Jiangchuan plexiglass Co. Ltd., φ300 mm×2 m) out-of-doors under a sunlight film (with a temperature of about 25 °C, a humidity of 60%-80%, and an illumination of 8000-20000 lux). Modified SM medium (see Table 2) was used. […] Then CO2 was aerated to saturation (pH 5.6) for 24 hours continuously. […] Then air was sufficiently aerated.

[Na+].[OH-] [1M NaOH, NaOH]
Oxyrrhis, result of microscope examination ([1]; Example 2, Chlorella sp. culture, pH 11.0-11.8 with 1M NaOH, three hours): almost no Oxyrrhis | Oxyrrhis, result of microscope examination ([1]; Example 4, Chlorella sp. culture, mixed contamination, pH 11.0-11.8 with 1M NaOH, one hour): essentially inactivated | Oxyrrhis, result of microscope examination ([1]; Example 6, Chlorococcum sp. culture, pH 11.5-12.0 with 1M NaOH, three hours): almost no Oxyrrhis | Oxyrrhis, result of microscope examination ([1]; Example 7, Chlorococcum sp. culture, mixed contamination, pH 11.5-12.0 with 1M NaOH): essentially inactivated

N [1M ammonia, ammonia]
time until algae started to grow ([2]; Example 13, pH 10.0 with 1M ammonia 3 h, then CO2 to pH 7.0-8.0): 18 h | algae growth compared with adjusting pH with NaOH ([2]; Example 13): clearly grew better | algae growth compared with adjusting pH with NaOH ([2]; Example 14): clearly grew better | algae growth compared with adjusting pH with NaOH [3]: clearly grew better | Oxyrrhis, result of microscope examination ([1]; Example 11, Chlorella sp. culture, pH 8.0 with 1M ammonia, three hours): almost no Oxyrrhis was observed | Oxyrrhis, result of microscope examination ([1]; Example 12, Chlorella sp. culture, mixed contamination, pH 9.0 with 1M ammonia, one hour): lost its activity essentially | Oxyrrhis, result of microscope examination ([1]; Example 13, Chlorococcum sp. culture, pH 10.0 with 1M ammonia, three hours): almost no Oxyrrhis | Oxyrrhis, result of microscope examination ([1]; Example 14, Chlorococcum sp. culture, mixed contamination, pH 9.0 with 1M ammonia): inactivated essentially | time until algae started to grow ([4]; Example 11, pH 8.0 with 1M ammonia 3 h, then CO2 to pH 7.0-8.0): 18 h | algae growth compared with adjusting pH with NaOH ([4]; Example 11): clearly grew better | algae growth compared with adjusting pH with NaOH ([4]; Example 12): clearly grew better
